Values joined by “and” are separate entries in the source; they are usually repeats but may differ in a detail not shown here. Equal entries are not always repeated.
Legend:
Rattus norvegicus [1] = species: Rattus norvegicus; assay type: functional; settings: dose 20 mg/kg
Rattus norvegicus [2] = species: Rattus norvegicus; assay type: functional; settings: dose 20 mg/kg; remark: listed apart in the source

In the case of `C[C@]12CC[C@H]3[C@@H](CCC4=CC(=O)CC[C@@]43C)[C@@H]1CC[C@@H]2O` [TESTOSTERONE], the “Change of tumor area” value (Rattus norvegicus [1]) is reported as -37% and -24% and -29% and the Uterine weight effect (Rattus norvegicus [2]) is reported as 23.3 and 29.3 and 34.7.

Source: ChEMBL document CHEMBL1123329, “Aromatase inhibitors. Synthesis and evaluation of mammary tumor inhibiting activity of 3-alkylated 3-(4-aminophenyl)piperidine-2,6-diones” (J Med Chem, 1986)
